Experiment [1] concerns Plasmodium falciparum. Description: Antimalarial activity against chloroquine-resistant Plasmodium falciparum Dd2 assessed as reduction in parasitic growth incubated for 72 hrs by Giemsa-staining based microscopic analysis. The format is functional, organism-based. As to conditions: Dd2, 72 h.
For experiment [2], the system named is Plasmodium falciparum. Put plainly: Antimalarial activity against chloroquine-sensitive Plasmodium falciparum 3D7 by SYBR green I assay. The format is functional, organism-based.
Experiment [3] deals with Plasmodium falciparum. Description: Antimalarial activity against Plasmodium falciparum 3D7 assessed as inhibition of parasite growth incubated for 96 hrs. Type of experiment: functional, organism-based. As to conditions: 3D7, 96 h.
In experiment [4] the test system is Plasmodium falciparum. Description: Antimalarial activity against chloroquine-resistant Plasmodium falciparum Dd2 assessed as inhibition of parasite growth. The format is functional, organism-based.
The subject of experiment [5] is Plasmodium falciparum. Put plainly: Antiplasmodial activity against chloroquine-sensitive Plasmodium falciparum 3D7 infected in human erythrocyte incubated for 72 hrs by SYBR green I staining based fluorescence assay. As to conditions: 3D7, Erythrocyte. The format is functional, organism-based.
The subject of experiment [6] is Plasmodium falciparum. Put plainly: Antiplasmodial activity against Plasmodium falciparum K1 infected in human Erythrocyte measured after 72 hrs by SYBR green fluorescence dye based microplate reader analysis. The format is functional, organism-based.
Experiment [7] deals with Plasmodium falciparum. Description: Antiplasmodial activity against Plasmodium falciparum Dd2 infected in human Erythrocyte measured after 72 hrs by SYBR green fluorescence dye based microplate reader analysis. The format is functional, organism-based.
In experiment [8] the test system is Plasmodium falciparum. Description: Antimalarial activity against Plasmodium falciparum K1 assessed as inhibition of parasitic growth. Type of experiment: functional, organism-based.
Another experiment deals with HepG2. Put plainly: Cytotoxicity against human HepG2 cells assessed as cell growth inhibition measured after 72 hrs by MTT assay. The format is functional. For orientation: Tetrazolium dyes change colour on reduction, which living cells bring about.
Experiment [9] concerns Plasmodium falciparum. Description: Antiplasmodial activity against Plasmodium falciparum 3D7 infected in human erythrocytes assessed as growth inhibition after 72 hrs by SYBR Gren-I fluorescent dye based method. As to conditions: 3D7, 72 h. The format is functional, organism-based.
Experiment [10] relates to Plasmodium falciparum. Put plainly: Antimalarial activity against drug sensitive Plasmodium falciparum NF54 assessed as inhibition of parasite growth. The format is functional, organism-based.
The test system of experiment [11] is Plasmodium falciparum. Put plainly: Antimalarial activity against chloroquine-resistant Plasmodium falciparum K1 assessed as reduction in cell growth. Type of experiment: functional, organism-based.
For the next experiment, the system named is Plasmodium berghei. Description: Antimalarial activity against liver stage Plasmodium berghei. Type of experiment: functional, organism-based.
In experiment [12] the test system is Plasmodium falciparum. Description: Antimalarial activity against Plasmodium falciparum 3D7 assessed as inhibition of parasite growth. Type of experiment: functional, organism-based.
In experiment [13] the test system is Plasmodium falciparum. Description: Antimalarial activity against CQ-resistant Plasmodium falciparum RKL9. The format is functional, organism-based.
For experiment [14], the system named is Plasmodium falciparum. Put plainly: Antimalarial activity against chloroquine resistant Plasmodium falciparum FcB1/Colombia assessed as inhibition of parasite growth incubated for 24 hrs by liquid scintillation spectrometer analysis. The format is functional, organism-based.
Experiment [15] deals with Plasmodium falciparum. Description: Antimalarial activity against chloroquine-sensitive Plasmodium falciparum NF54 assessed as reduction in cell growth. Type of experiment: functional, organism-based.

17 compounds from ChEMBL document CHEMBL5344418, “Recent developments in antimalarial activities of 4-aminoquinoline derivatives” (Eur J Med Chem, 2023) can be followed below.

Broadly, the IC50 is the concentration at which inhibition is half-maximal. By EC50 is commonly meant the midpoint of the concentration-response curve. Broadly, the CC50 is the concentration that lowers cell viability or growth by half.

For the compound `CCCCCCCC(=O)NCCCC(C)Nc1ccnc2cc(Cl)ccc12` (stereo unspecified), the 50% inhibitory concentration (IC50) turned out to be 109000 nM with Plasmodium falciparum [1] and 51 nM in the experiment with Plasmodium falciparum [2].
For the compound `O=C(O)C(Cc1c[nH]c2ccccc12)Nc1ccnc2cc(Cl)ccc12` (stereo unspecified), the half-inhibitory concentration (IC50) was determined as 8000 nM in the experiment with Plasmodium falciparum [3] and 5000 nM in the experiment with Plasmodium falciparum [4].
Turning to `C[C@H]1[C@H](OC(=O)CCC(=O)OCCNc2ccnc3cc(Cl)ccc23)O[C@@H]2O[C@@]3(C)CC[C@H]4[C@H](C)CC[C@@H]1[C@@]24OO3`, the figures for the EC50 with Plasmodium falciparum [5], with Plasmodium falciparum [6] and with Plasmodium falciparum [7] were 4.5 nM, 1.7 nM and 2.3 nM, respectively.
On to `CC1(C)[C@@H]2CC=C(CC(=O)Nc3ccnc4ccccc34)[C@H]1C2`, for which the 50% effective concentration (EC50) stood at 13900 nM in the experiment on Plasmodium falciparum [8], 26400 nM in the experiment with Plasmodium falciparum [9] and 23400 nM with Plasmodium falciparum [10]. Moreover, the CC50 in the experiment on HepG2 was determined as 3890 nM.
Turning to `C#Cc1ccc(-c2cn(CCNc3ccnc4cc(Cl)ccc34)nn2)cc1`, the IC50 in the experiment on Plasmodium falciparum [11] came to 180 nM.
As to `O=C(O)c1cn(C2CC2)c2cc(N3CCNCC3)c(F)cc2c1=O` [CIPROFLOXACIN], the IC50 in the experiment with Plasmodium berghei was 60 nM.
On to `O=[N+]([O-])c1ccc(/C=N/Nc2ccnc3cc(Cl)ccc23)cc1`, for which the IC50 in the experiment with Plasmodium falciparum [12] and in the experiment on Plasmodium falciparum [13] was 9 nM throughout.
In the case of `CCOP(=O)(CCCN(O)C(=O)CCC(=O)N1CCN(c2ccnc3cc(Cl)ccc23)CC1)OCC`, in the experiment on Plasmodium falciparum [14], the 50% inhibitory concentration (IC50) is 2700 nM.
`O=C(O)CCCCCCCCCCCNc1ccnc2cc(Cl)ccc12`: the IC50 in the experiment on Plasmodium falciparum [3] is 31 nM; in the experiment with Plasmodium falciparum [4], 4000 nM.
As for `CCOP(=O)(CCCN(O)C(=O)CCC(=O)NCCNc1ccnc2cc(Cl)ccc12)OCC`, in the experiment on Plasmodium falciparum [14], the half-inhibitory concentration (IC50) was determined as 4200 nM.
Take `C#Cc1ccc(-c2cn(CCNc3ccnc4cc(Cl)ccc34)nn2)c(F)c1`: the concentration for half-maximal inhibition (IC50) was found to be 190 nM with Plasmodium falciparum [15] and 210 nM in the experiment on Plasmodium falciparum [11].
As for `CCCC(=O)NCCCC(C)Nc1ccnc2cc(Cl)ccc12` (stereo unspecified), the half-inhibitory concentration (IC50) in the experiment with Plasmodium falciparum [1] amounted to 588000 nM; in the experiment on Plasmodium falciparum [2], 627 nM.
Regarding `C#CCCCN(CCNc1ccnc2cc(Cl)ccc12)C(=O)CCC(=O)O[C@@H]1O[C@@H]2O[C@@]3(C)CC[C@H]4[C@H](C)CC[C@@H]([C@H]1C)[C@@]24OO3`, the figures for the EC50 with Plasmodium falciparum [5], with Plasmodium falciparum [6] and in the experiment on Plasmodium falciparum [7] were 3.5 nM, 1.3 nM and 1.6 nM, respectively.
Take `CC(C)Cc1ccc(C(C)C(=O)NCCNc2ccnc3cc(Cl)ccc23)cc1` (stereo unspecified): the results for the IC50 with Plasmodium falciparum [3] and in the experiment on Plasmodium falciparum [4] were 125 nM and 201 nM, respectively.
`CC1(C)[C@@H]2CC=C(CC(=O)Nc3ccnc4cc(Cl)ccc34)[C@H]1C2`: the concentration for a half-maximal effect (EC50) in the experiment on Plasmodium falciparum [8] amounted to 7840 nM; with Plasmodium falciparum [9], 17100 nM; in the experiment with Plasmodium falciparum [10], 21400 nM. The CC50 in the experiment on HepG2 stood at 14300 nM.
As for `CCCCCCCCCCCC(=O)NCCCC(C)Nc1ccnc2cc(Cl)ccc12` (stereo unspecified), the IC50 in the experiment with Plasmodium falciparum [1] was 160000 nM; in the experiment on Plasmodium falciparum [2] it was 45 nM.
As to `COc1cc(/C=N/Nc2ccnc3cc(Cl)ccc23)ccc1O`, the concentration for half-maximal inhibition (IC50) in the experiment with Plasmodium falciparum [12] and in the experiment on Plasmodium falciparum [13] was 9 nM throughout.
